Test results as given in US12312333B2, “SK channel positive allosteric modulators” (Chapman University, priority 2021, dated 2025).

Key:
human KCa2.1 channel = target: T1, human KCa2.1 channel (Homo sapiens, UniProt P0DP23+Q92952); test: Inside-out patch-clamp on KCa2.1 channels expressed in HEK293 cells; type: cell-based; conditions: for response of KCa2.1 channels: inside-out patch; for Emax: normalized to 10 μM Ca2+
T1 construct: expressed in transfected cells; host or cells: HEK293
Description: (§1) The two newly synthesized compounds, 2o and 2q, were tested to determine whether they retained their subtype-selectivity. Neither 2o (FIG. 5A) nor 2q (FIG. 5B) elicited significant responses from the human KCa2.1 channel expressed in HEK293 cells. When compared with the responses from KCa2.2a channels to these two compounds, the differences became even more apparent (FIG. 5C), with the Emax values on KCa2.2a channels at ˜90%, whereas the Emax values on KCa2.1 channels were at ˜0% (FIG. 5D).
(§2) The effect of newly synthesized compounds on the KCa2.x/KCa3.1 channels was investigated as previously described (Nam, Y. W.; et al, Acta Physiol (Oxf) 2020, e13552; Nam, Y. W.; et al. Scientific reports 2018, 8 (1), 10749). Briefly, the rat KCa2.2a, human KCa2.1, human KCa2.3 or human KCa3.1 channels cDNA constructs were either generated in-house or through molecular cloning services (Genscript). The channel cDNAs, along with CaM and GFP, at a ratio of 7:4:2 (ORF ratios), were transfected into HEK293 cells by the calcium-phosphate method. KCa currents were recorded 1-2 days after transfection, with an Axon200B amplifier (Molecular Devices) at room temperature. The resistance of the patch electrodes ranged from 3-5 MΩ. The pipette solution contained (in mM): 140 KCl, 10 Hepes (pH 7.4), 1 MgSO4. The bath solution containing (in mM): 140 KCl, 10 Hepes (pH 7.2), 1 EGTA, 0.1 Dibromo-BAPTA, and 1 HEDTA was mixed with Ca^2+ to obtain the desired free Ca^2+ concentrations, calculated using the software by Chris Patton of Stanford University (https://somapp.ucdmc.ucdavis.edu/pharmacology/bers/maxchelator/webmaxc/webmaxcS.htm). […] Briefly, a standard curve was generated using the Ca^2+ buffers from the kit and a fluorescence Ca^2+ indicator. Then, the Ca^2+ concentrations of the bath solution were determined through interpolation on the standard curve.
(§3) High resistance seals (>1 GΩ) were formed before inside-out patches were obtained. […] Currents were recorded by repetitive 1-s-voltage ramps from −100 mV to +100 mV from a holding potential of 0 mV. […]
(§4) To measure the effect of CyPPA (Alomone Labs) and newly synthesized compounds, the intracellular face was exposed to bath solutions with 0.15 μM Ca^2+. One minute after switching of bath solutions, ten sweeps with a 1-s interval were recorded at a series of concentrations of compound in the presence of 0.15 μM Ca^2+. The maximal KCa2.x/KCa3.1 current in response to 10 μM Ca^2+ was then recorded.
(§5) Patch-clamp recordings were analyzed using Clampfit 10.5 (Molecular Devices LLC) and concentration-response curves were analyzed in GraphPad Prism 9.0.2 (GraphPad Software Inc.). […] EC50 values and Hill coefficients were determined by fitting the data points to a standard concentration-response curve (Y=100/(1+(X/EC50)^−Hill)). […]

human KCa3.1 channel = target: T2, human KCa3.1 channel (Homo sapiens, UniProt O15554+P0DP23); test: Inside-out patch-clamp on KCa3.1 channels expressed in HEK293 cells; type: cell-based; conditions: for response of KCa3.1 channels: inside-out patch; for Emax: normalized to 10 μM Ca2+
T2 construct: expressed in transfected cells; host or cells: HEK293
Description: as §1, §2, §3, §4, §5

Row | response of KCa2.1 channels (human KCa2.1 channel) | Emax (human KCa2.1 channel) [%] | response of KCa3.1 channels (human KCa3.1 channel) | Emax (human KCa3.1 channel) [%] | Compound
1 | Lack of response | ~0 | mostly insensitive | -0.79 ± 1.19 | Cc1cc(Nc2cc(Cl)ccc2F)nc(-n2nc(C)cc2C)n1 [Compound 2q, N-(5-Chloro-2-fluorophenyl)-2-(3,5-dimethyl-1H-pyrazol-1-yl)-6-methylpyrimidin-4-amine]
2 | Lack of response | ~0 | mostly insensitive | 26.1 ± 7.67 | Cc1cc(Nc2ccc(F)c(Cl)c2)nc(-n2nc(C)cc2C)n1 [Compound 2o, N-(3-Chloro-4-fluorophenyl)-2-(3,5-dimethyl-1H-pyrazol-1-yl)-6-methyl-pyrimidin-4-amine]
